Measurements: US20240294595A1, “GLYCOPEPTIDES AND USES THEREOF” (Arizona Board of Regents on Behalf of the University of …, priority 2013, published 2024)
Where a SMILES comes first, the peptide text is derived from it. [ ]: non-standard residue; d: D form. The star is where a group is joined. βGlc = OC[C@H]1O[C@@H](*)[C@H](O)[C@@H](O)[C@@H]1O; Nle = CCCC[C@H](N)C(=O)O

How the values were obtained:
Format in all cases: cell-based
[1] = target: T1, VPAC2 (Homo sapiens, UniProt P41587); assay: VPAC2 agonist data (Table 2)
T1 sequence (P41587 24-438): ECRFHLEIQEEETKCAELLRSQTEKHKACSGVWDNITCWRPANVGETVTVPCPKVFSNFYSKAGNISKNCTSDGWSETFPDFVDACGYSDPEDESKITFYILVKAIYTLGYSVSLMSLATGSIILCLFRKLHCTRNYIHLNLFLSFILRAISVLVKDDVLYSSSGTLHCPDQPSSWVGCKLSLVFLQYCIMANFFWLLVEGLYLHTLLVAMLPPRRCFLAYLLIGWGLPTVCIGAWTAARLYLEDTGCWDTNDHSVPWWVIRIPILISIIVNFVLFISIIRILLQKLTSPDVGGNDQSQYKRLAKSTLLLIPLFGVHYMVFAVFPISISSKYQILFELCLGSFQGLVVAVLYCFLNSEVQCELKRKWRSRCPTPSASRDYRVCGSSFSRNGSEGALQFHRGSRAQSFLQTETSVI

[2] = target: T2, PAC1 (Homo sapiens, UniProt P41586); assay: PAC1 agonist data (Table 2); set-up: host or cells: CHO (clonal line PAC1-CHO)
T2 sequence (P41586 21-468): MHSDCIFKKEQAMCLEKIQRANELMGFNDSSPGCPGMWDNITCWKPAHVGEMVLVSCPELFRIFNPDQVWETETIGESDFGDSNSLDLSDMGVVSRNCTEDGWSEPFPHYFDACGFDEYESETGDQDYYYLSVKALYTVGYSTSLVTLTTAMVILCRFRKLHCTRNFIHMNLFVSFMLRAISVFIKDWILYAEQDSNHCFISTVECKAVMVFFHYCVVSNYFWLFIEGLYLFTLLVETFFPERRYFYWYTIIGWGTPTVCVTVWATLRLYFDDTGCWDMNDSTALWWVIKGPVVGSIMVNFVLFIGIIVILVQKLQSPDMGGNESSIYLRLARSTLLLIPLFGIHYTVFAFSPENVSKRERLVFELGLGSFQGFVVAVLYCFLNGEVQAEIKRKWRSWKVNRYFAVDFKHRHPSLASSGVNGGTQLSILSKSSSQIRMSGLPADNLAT
Description: A custom DNA clone of the human PAC1 gene with 3 hemagglutinin (HA) tags inserted 3′ to the signal peptide sequence (to avoid proteolytic loss) was obtained from Genecopoeia (Rockville, MD). The construct was electroporated into Chinese Hamster Ovary (CHO) cells, and selected for with 500 μg/mL of G418. The resulting population was screened for high expressing clones, and one such clone selected for further analysis. […] This cell line was used for all molecular pharmacology experiments. The cells were maintained in DMEM/F12 with 10% heat-inactivated FBS, 1× penicillin/streptomycin, and 500 μg/mL G418, at 37° C. and 5% CO2.
All molecular pharmacology experiments were carried out using a FLIPR Tetra from Molecular Devices (Sunnyvale, CA), set to image calcium flux using the manufacturer's recommended settings and protocols. The day before an experiment, the PAC1-CHO cells were split into 384 well black walled, clear bottom microplates, 10,000 cells per well. The cells were recovered overnight in growth medium (as above). The next day, the growth medium was replaced with Calcium 6 dye (Molecular Devices) using the manufacturer recommended buffer with 2.5 mM probenecid. The cells were incubated for 2 hours in the culture incubator, and removed during the last 15 minutes to allow equilibration to room temperature. Compound as indicated below was added to the cells using a 384 tip block, with real time monitoring before, during, and 15 minutes after compound addition. The resulting calcium flux was recorded, and the maximum-minimum response over the entire observation time calculated and reported as the mean±SEM (4 wells per point).
For agonist mode experiments, compound was added in an 11 point concentration curve, with a vehicle control (buffer). […] The response was analyzed using a 3 variable non-linear curve fit, and the EC50 (nM) and EMax (%) calculated and reported (Prism, GraphPad, La Jolla, CA).

[3] = target: T3, VPAC1 (Homo sapiens, UniProt P32241); assay: VPAC1 agonist data (Table 2)
T3 sequence (P32241 31-457): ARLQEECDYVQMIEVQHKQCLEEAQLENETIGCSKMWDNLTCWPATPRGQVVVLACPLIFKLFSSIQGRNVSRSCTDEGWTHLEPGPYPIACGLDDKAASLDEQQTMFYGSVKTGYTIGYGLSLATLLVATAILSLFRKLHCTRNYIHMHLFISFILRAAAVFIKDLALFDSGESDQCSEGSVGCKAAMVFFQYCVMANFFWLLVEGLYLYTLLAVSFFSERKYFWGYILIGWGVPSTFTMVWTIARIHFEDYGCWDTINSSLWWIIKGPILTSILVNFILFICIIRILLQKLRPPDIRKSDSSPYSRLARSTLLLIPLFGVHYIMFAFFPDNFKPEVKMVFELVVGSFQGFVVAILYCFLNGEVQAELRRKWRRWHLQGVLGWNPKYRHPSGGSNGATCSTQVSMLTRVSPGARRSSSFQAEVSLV

Row | SMILES | EC50 [1] [nM] | Emax [1] [%] | EC50 [2] [nM] | Emax [2] [%] | EC50 [3] [nM] | Emax [3] [%]
1 | CCCC[C@H](NC(=O)[C@H](CCC(N)=O)NC(=O)[C@H](CCCCN)NC(=O)[C@H](CCCNC(=N)N)NC(=O)[C@H](Cc1ccc(O)cc1)NC(=O)[C@H](CCCNC(=N)N)NC(=O)[C@H](CO)NC(=O)[C@H](Cc1ccc(O)cc1)NC(=O)[C@H](CO)NC(=O)[C@H](CC(=O)O)NC(=O)[C@@H](NC(=O)[C@H](Cc1ccccc1)NC(=O)[C@@H](NC(=O)CNC(=O)[C@H](CC(=O)O)NC(=O)[C@@H](CO)NC(=O)[C@@H](N)Cc1c[nH]cn1)[C@@H](C)CC)[C@@H](C)O)C(=O)N[C@@H](C)C(=O)N[C@H](C(=O)N[C@@H](CCCCN)C(=O)N[C@@H](CCCCN)C(=O)N[C@@H](Cc1ccc(O)cc1)C(=O)N[C@@H](CC(C)C)C(=O)N[C@@H](C)C(=O)N[C@@H](C)C(=O)N[C@@H](CC(C)C)C(=O)N[C@@H](CO[C@@H]1O[C@H](CO)[C@@H](O)[C@H](O)[C@H]1O)C(=O)N[C@@H](CC(C)C)C(N)=O)C(C)C (H-H[dS]DGIFTDSYSRYRKQ[Nle]AVKKYLAALS(βGlc)L-NH2; C-terminus assumed) | > 2500 | -95 | > 250 | -79 | 5.9 | 93
2 | CCCC[C@H](NC(=O)[C@H](CCC(N)=O)NC(=O)[C@H](CCCCN)NC(=O)[C@H](CCCNC(=N)N)NC(=O)[C@H](Cc1ccc(O)cc1)NC(=O)[C@H](CCCNC(=N)N)NC(=O)[C@H](CO)NC(=O)[C@H](Cc1ccc(O)cc1)NC(=O)[C@H](CO)NC(=O)[C@H](CC(=O)O)NC(=O)[C@H](C)NC(=O)[C@H](Cc1ccccc1)NC(=O)[C@@H](NC(=O)CNC(=O)[C@H](CC(=O)O)NC(=O)[C@@H](CO)NC(=O)[C@@H](N)Cc1c[nH]cn1)[C@@H](C)CC)C(=O)N[C@@H](C)C(=O)N[C@H](C(=O)N[C@@H](CCCCN)C(=O)N[C@@H](CCCCN)C(=O)N[C@@H](Cc1ccc(O)cc1)C(=O)N[C@@H](CC(C)C)C(=O)N[C@@H](C)C(=O)N[C@@H](C)C(=O)N[C@H](C(=O)N[C@@H](CO[C@@H]1O[C@H](CO)[C@@H](O)[C@H](O)[C@H]1O)C(N)=O)C(C)C)C(C)C (H-H[dS]DGIFADSYSRYRKQ[Nle]AVKKYLAAVS(βGlc)-NH2; C-terminus assumed) | – | – | – | – | 1370 | 85
3 | CCCC[C@H](NC(=O)[C@H](CCC(N)=O)NC(=O)[C@H](CCCCN)NC(=O)[C@H](CCCNC(=N)N)NC(=O)[C@H](Cc1ccc(O)cc1)NC(=O)[C@H](CCCNC(=N)N)NC(=O)[C@H](CO)NC(=O)[C@H](Cc1ccc(O)cc1)NC(=O)[C@H](CO)NC(=O)[C@H](CC(=O)O)NC(=O)[C@H](C)NC(=O)[C@H](Cc1ccccc1)NC(=O)[C@@H](NC(=O)CNC(=O)[C@H](CC(=O)O)NC(=O)[C@@H](CO)NC(=O)[C@@H](N)Cc1c[nH]cn1)[C@@H](C)CC)C(=O)N[C@@H](C)C(=O)N[C@H](C(=O)N[C@@H](CCCCN)C(=O)N[C@@H](CCCCN)C(=O)N[C@@H](Cc1ccc(O)cc1)C(=O)N[C@@H](CC(C)C)C(=O)N[C@@H](C)C(=O)N[C@@H](C)C(=O)N[C@H](C(=O)N[C@@H](CO[C@@H]1O[C@H](CO)[C@@H](O)[C@H](O)[C@H]1O)C(=O)N[C@@H](CC(C)C)C(N)=O)C(C)C)C(C)C (H-H[dS]DGIFADSYSRYRKQ[Nle]AVKKYLAAVS(βGlc)L-NH2; C-terminus assumed) | – | – | – | – | 1620 | 78
4 | CCCC[C@H](NC(=O)[C@H](CCC(N)=O)NC(=O)[C@H](CCCCN)NC(=O)[C@H](CCCNC(=N)N)NC(=O)[C@H](Cc1ccc(O)cc1)NC(=O)[C@H](CCCNC(=N)N)NC(=O)[C@H](CO)NC(=O)[C@H](Cc1ccc(O)cc1)NC(=O)[C@H](CO)NC(=O)[C@H](CC(=O)O)NC(=O)[C@@H](NC(=O)[C@H](Cc1ccccc1)NC(=O)[C@@H](NC(=O)CNC(=O)[C@H](CC(=O)O)NC(=O)[C@@H](CO)NC(=O)[C@@H](N)Cc1c[nH]cn1)[C@@H](C)CC)[C@@H](C)O)C(=O)N[C@@H](C)C(=O)N[C@H](C(=O)N[C@@H](CCCCN)C(=O)N[C@@H](CCCCN)C(=O)N[C@@H](Cc1ccc(O)cc1)C(=O)N[C@@H](CC(C)C)C(=O)N[C@@H](C)C(=O)N[C@@H](C)C(=O)N[C@H](C(=O)N[C@@H](CC(C)C)C(=O)N[C@@H](CO[C@@H]1O[C@H](CO)[C@@H](O)[C@H](O)[C@H]1O)C(N)=O)C(C)C)C(C)C | 241 | 104 | 25.5 | 85 | 1.3 | 90
5 | CCCC[C@H](NC(=O)[C@H](CCC(N)=O)NC(=O)[C@H](CCCCN)NC(=O)[C@H](CCCNC(=N)N)NC(=O)[C@H](Cc1ccc(O)cc1)NC(=O)[C@H](CCCNC(=N)N)NC(=O)[C@H](CO)NC(=O)[C@H](Cc1ccc(O)cc1)NC(=O)[C@H](CO)NC(=O)[C@H](CC(=O)O)NC(=O)[C@@H](NC(=O)[C@H](Cc1ccccc1)NC(=O)[C@@H](NC(=O)CNC(=O)[C@H](CC(=O)O)NC(=O)[C@@H](CO)NC(=O)[C@@H](N)Cc1c[nH]cn1)[C@@H](C)CC)[C@@H](C)O)C(=O)N[C@@H](C)C(=O)N[C@H](C(=O)N[C@@H](CCCCN)C(=O)N[C@@H](CCCCN)C(=O)N[C@@H](Cc1ccc(O)cc1)C(=O)N[C@@H](CC(C)C)C(=O)N[C@@H](C)C(=O)N[C@@H](C)C(=O)N[C@H](C(=O)N[C@@H](CO[C@@H]1O[C@H](CO)[C@@H](O)[C@H](O)[C@H]1O)C(N)=O)C(C)C)C(C)C | 654 | 107 | 54.5 | 86 | 4.8 | 90
